The values that follow come from PubChem BioAssay (NCI).

Holding throughout (test): NCI anticancer screen, dose series, 48 h
Experiment [1] deals with RPMI-8226 leukemia.
For experiment [2], the system named is 786-0 renal.
The test system of experiment [3] is MDA-MB-231 breast.
The test system of experiment [4] is SNB-19 CNS.
The subject of experiment [5] is OVCAR-4 ovarian.
In experiment [6] the test system is HOP-92 NSCLC.
The subject of experiment [7] is CCRF-CEM leukemia.
Experiment [8] concerns OVCAR-5 ovarian.
The test system of experiment [9] is U251 CNS.
Experiment [10] has as its system A498 renal.

Values joined by “and” are separate entries in the source; they are usually repeats but may differ in a detail not shown here. Equal entries are not always repeated.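 Protocol summary: plate cells (96-well), add compound at 5 concentrations, incubate 48 h, interpolate endpoints linearly. Here, GI50 denotes the concentration required for 50% inhibition of growth. TGI denotes the concentration required for complete inhibition of growth.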 Where only a bound is given, the exact number is not on record here.

Consider `CCCCC(=C=C1CCCCC1O)C1CCCN1C(=O)OC(C)(C)C` (stereo not drawn), for which the TGI was determined as 32.6 µM in experiment [1]; 29.6 µM in experiment [2]; 30 µM in experiment [3]; 31.1 µM in [4]; 27.4 µM in experiment [5]; 26 µM in [6]. Moreover, the results for the TGI in [7], in experiment [8] and in experiment [9] were 35 µM, 29.4 µM and 29.4 µM, respectively.

With `COC1(OC)N=C(N)C2(C#N)/C(=N/N(C)C)CC(C)C12C#N` (stereo not drawn), the TGI in [10], in experiment [2], in experiment [3], in [4], in experiment [6] and in experiment [7] was > 100 µM each time. The TGI in experiment [8] and in experiment [9] was > 100 µM throughout.

For `COC1(OC)/C(=C(\N)C=O)NC(C)(C)N1O`, the TGI in experiment [10], in experiment [1], in experiment [2], in experiment [3], in [4] and in experiment [5] was > 100 µM in each case. The TGI in experiment [6], in experiment [7], in experiment [8] and in experiment [9] was > 100 µM each time.

On to `COC(=O)C1(Cc2ccccc2)Cc2ccccc2C1=O` (stereo not drawn), for which the TGI in experiment [1], in experiment [2], in experiment [3], in [5], in experiment [6] and in experiment [7] was > 100 µM in each case. In addition, the values for the TGI in experiment [8] and in experiment [9] were > 100 µM and 85.9 µM, respectively.

`O=C1N2CCc3c([nH]c4ccccc34)C23CC2CCCC12S3` (stereo not drawn): the TGI in experiment [10], in experiment [1], in [2], in experiment [3], in experiment [4] and in [5] was > 50 µM in each case. In addition, the TGI in experiment [6], in experiment [8] and in experiment [9] was > 50 µM each time.

Take `COC(=O)CCc1ccc2c(c1)CC1(C2)Cc2ccc(CCC(=O)OC)cc2C1`: the TGI in experiment [10] is > 100 µM; in experiment [1] it was 89.7 µM; in [2], > 100 µM; in experiment [3] it was > 100 µM; in experiment [5], > 100 µM; in experiment [6] it was 99.7 µM. Besides, the TGI is 97.1 µM in experiment [7], > 100 µM in experiment [8] and > 100 µM in [9].

On to `O=C(Nc1ccccc1)N1N=C(c2ccccc2)C1c1ccccc1` (stereo not drawn), for which the TGI in experiment [10] is 42.7 µM; in experiment [1] it was 30.6 µM; in experiment [2], 36.6 µM; in experiment [3], > 100 µM; in experiment [4], > 100 µM; in [5] it was > 100 µM. Besides, the TGI in [6] is 91.9 µM; in experiment [8] it was > 100 µM; in [9], > 100 µM.

With `CC(C)CC1c2[nH]c3ccccc3c2C[C@H]2C(=O)NC(COC(C)(C)C)C(=O)N12` (stereo partly drawn), the TGI is > 100 µM in experiment [10]; 58 µM in experiment [1]; 98.5 µM in experiment [2]; 38.8 µM in [3]; > 100 µM in [4]; > 100 µM in experiment [5]. In addition, the TGI in experiment [6] was 74.7 µM; in experiment [8], 54.8 µM; in experiment [9], 41 µM.

Consider `c1ccc(C/C(=N\Nc2nc3ccccc3o2)c2ccccn2)cc1`, for which the TGI came out at 1.69 µM in experiment [10]; 0.957 µM in experiment [1]; 0.136 µM in experiment [2]; 16.7 µM in experiment [3]; 20.5 µM in experiment [4]; 0.268 µM in experiment [6]. For the same molecule, the TGI amounted to 0.0473 µM in [7] and 5.32 µM in experiment [9].

Take `CN(C)CCNC(=O)c1cccc2c(NC(CS)C(=O)O)c3ccccc3nc12` (stereo not drawn): the TGI in [2] was > 100 µM; in experiment [3], 23.6 µM; in [4], 50.9 µM; in [5] it was > 100 µM; in experiment [6], > 100 µM; in experiment [7] it was > 100 µM. Moreover, the TGI was 60.4 µM in experiment [8] and > 100 µM in experiment [9].

Take `COc1cccc(N2N=C3c4ccccc4-n4c(nc5ccccc54)C3C2N)c1` (stereo not drawn): the TGI in experiment [10], in [1], in experiment [2], in [3], in [4] and in [5] was > 100 µM in each case. Also, the TGI in experiment [6], in experiment [8] and in experiment [9] was > 100 µM each time.

Consider `OCc1ccccc1OC1OC(CO)C(O)C(O)C1O` (stereo not drawn), for which the TGI in [10], in [1], in [2], in experiment [3], in experiment [5] and in [6] was > 100 µM each time. In addition, the TGI in [7], in experiment [8] and in [9] was > 100 µM throughout.

In the case of `CC(=O)OCC1OC(n2c3c(c(-c4ccco4)c(C#N)c2=S)CCCC3)C(OC(C)=O)C(OC(C)=O)C1OC(C)=O` (stereo not drawn), the TGI in [10] is 22.1 µM; in [1], > 100 µM; in [2], 52.6 µM; in experiment [3], > 31.6 µM; in [4] it was 26.2 µM; in experiment [5], > 31.6 µM. The TGI in experiment [6] was 19.3 µM; in experiment [8] it was > 31.6 µM.

`COc1cc2c(cc1OC)C1Cc3ccccc3CN1CCC2` (stereo not drawn): the TGI in experiment [10], in experiment [2], in [3], in experiment [4], in experiment [5] and in [6] was > 100 µM in each case. Moreover, the TGI in experiment [7], in experiment [8] and in experiment [9] was > 100 µM in each case.

Turning to `Cc1nn(C(=O)c2ccccc2O)c2c1C(c1ccc(O)cc1)SC(N)=N2` (stereo not drawn), the TGI in experiment [10] was > 10 µM; in experiment [1] it was > 5.38 µM; in experiment [2] it was > 10 µM; in [3], > 10 µM; in experiment [4], > 10 µM; in experiment [5], > 8.37 µM. The TGI in [7], in experiment [8] and in experiment [9] was > 10 µM each time.

Turning to `C=C(CCC(C(=O)O)C1CCC2(C)C3=C(CCC12C)C1(C)CCC(O)C(C)(C)C1CC3)C(C)C` (stereo not drawn), the TGI in experiment [10] was 75.2 µM; in experiment [1], 79.7 µM; in experiment [2], > 100 µM; in experiment [3] it was > 100 µM; in experiment [4] it was > 100 µM; in [5], > 100 µM. Further, the values for the TGI in experiment [6], in [8] and in [9] were > 100 µM, > 100 µM and 72.8 µM, respectively.

As for `COC(=O)C(Cc1ccccc1)NC(=O)CCCNC(=O)OCc1ccccc1` (stereo not drawn), the TGI in experiment [1], in experiment [2], in experiment [3], in [4], in experiment [5] and in [6] was > 100 µM each time. Also, the TGI in experiment [7], in [8] and in experiment [9] was > 100 µM throughout.

In the case of `CCCCCCCC(CC(=O)O)OC(=O)CC(CCCCCCC)OC1OC(C)C(O)C(O)C1OC1OC(C)C(O)C(O)C1O` (stereo not drawn), the TGI in [10], in experiment [1], in [2], in experiment [3], in experiment [4] and in [6] was > 100 µM throughout. Besides, the TGI in experiment [7], in experiment [8] and in experiment [9] was > 100 µM throughout.

With `c1csc(-c2ccc(-c3ccc(-c4cccs4)s3)s2)c1`, the TGI in experiment [10], in experiment [1], in experiment [2], in experiment [3], in [4] and in experiment [5] was > 100 µM each time. Also, the TGI in experiment [8] and in experiment [9] was > 100 µM each time.

Consider `CC(=O)c1nccc2c1c(C)nc1ccccc12`, for which the TGI in [10] is > 100 µM; in [1], 61 µM; in experiment [3] it was > 100 µM; in [4] it was > 100 µM; in experiment [5], > 100 µM; in experiment [6], > 100 µM. For the same molecule, the TGI in experiment [7] was 68.6 µM; in experiment [8], > 100 µM; in experiment [9], > 100 µM.

Regarding `COc1ccc(CC2C(=O)NC(C)C(=O)N(C)C3Cc4ccc(cc4)Oc4cc(ccc4O)CC(C(=O)NC(C)C(=O)NC(C)C(=O)N2C)N(C)C3=O)cc1` (stereo not drawn), the TGI in experiment [10] was 0.0147 µM and 0.0709 µM; in experiment [1], 0.0327 µM and 0.0179 µM; in experiment [3], 0.0671 µM; in experiment [5] it was 0.523 µM and 0.131 µM and 0.088 µM; in experiment [6] it was 0.000866 µM; in experiment [7], 0.122 µM. Besides, the TGI in experiment [8] is 0.0305 µM and 0.0607 µM. The GI50 was < 0.0001 µM in experiment [1]; < 0.0001 µM in [4]; < 0.0001 µM in experiment [5]; 0.000108 µM in [6]; < 0.0001 µM in experiment [7]; < 0.0001 µM in experiment [9].

Regarding `Cc1cnc2[nH]c(-c3ccccc3)cc(=O)c2c1`, the TGI in experiment [1] is > 8.62 µM; in [2], > 100 µM; in [3] it was > 100 µM; in experiment [4] it was > 100 µM; in experiment [5] it was > 100 µM; in [6] it was > 42.2 µM. For the same molecule, the TGI was 2.79 µM in experiment [7], > 100 µM in [8] and > 22.1 µM in experiment [9].

Consider `Cc1ccc(Nc2nnc3n2S(=O)(=O)c2cc(C)c(Cl)cc2S3)cc1`, for which the TGI was 89.2 µM in [10]; 54.9 µM in experiment [1]; 35.5 µM in [2]; 82.4 µM in experiment [3]; > 100 µM in experiment [5]; 83.1 µM in experiment [6]. The figures for the TGI in experiment [8] and in experiment [9] were 74.8 µM and 59.2 µM, respectively.

As to `COc1ccc(C[C@H]2COC(=O)[C@@H]2Cc2cc(OC)c(OC)c(OC)c2)cc1OC`, the TGI in experiment [1], in experiment [2], in experiment [3], in [4], in experiment [5] and in experiment [6] was > 100 µM each time. In addition, the TGI in experiment [7], in [8] and in [9] was > 100 µM each time.

In the case of `CCOc1cc(C=O)ccc1O`, the TGI in experiment [1], in [2], in experiment [3], in experiment [4], in experiment [5] and in experiment [6] was > 100 µM in each case. Moreover, the TGI in [8] and in experiment [9] was > 100 µM each time.

As to `C=CC1(CCC(Br)C(C)(C)Cl)CO1` (stereo not drawn), the TGI in [10], in [1], in experiment [2], in [3], in experiment [4] and in experiment [6] was > 10 µM in each case. Further, the TGI in [7], in [8] and in experiment [9] was > 10 µM each time.

Consider `COc1ccc(S(=O)(=O)Nc2ccc(-c3csc(N4C(=O)/C(=C/C=C\c5ccccc5)N=C4c4ccccc4)n3)cc2)cc1Cl`, for which the TGI is 73.1 µM in experiment [10]; > 100 µM in experiment [2]; 51.6 µM in experiment [3]; > 100 µM in experiment [4]; 88.9 µM in experiment [5]; 41.1 µM in experiment [6]. Further, the TGI in experiment [7] is > 100 µM; in [8], > 100 µM; in [9], 76.4 µM.

As for `C=C1c2nc3ccccc3n2C=C(c2ccccc2)N1c1ccc(OC)cc1`, the TGI in experiment [10] is > 100 µM; in [1] it was > 100 µM; in experiment [2], 56.8 µM; in [3], > 100 µM; in [5], > 100 µM; in experiment [6], > 100 µM. The TGI in [7], in [8] and in experiment [9] was > 100 µM each time.

In the case of `C=C1C(=O)O[C@H]2C(=O)[C@H](C)CCC[C@@](C)(O)/C=C\C[C@@]3(C)O[C@@H]3C[C@@H]12`, the TGI was 56.1 µM in [10]; 33.7 µM in experiment [1]; 25 µM in experiment [2]; 43.6 µM in [3]; > 100 µM in experiment [4]; 23.8 µM in experiment [6]. Besides, the TGI in [7] came to 12.3 µM; in [8], 3.64 µM; in experiment [9] it was 34.4 µM.
